Test results from ChEMBL document CHEMBL3272324, “Studies on antitumor agents, 2. Syntheses and antitumor activities of 1-(tetrahydro-2-furanyl)-5-fluorouracil and 1,3-bis(tetrahydro-2-furanyl)-5-fluorouracil” (J Med Chem, 1978).

How the values were obtained:
[1] = system: Rattus norvegicus; experiment: Toxicity in Donryu rat allografted with rat AH-130 cells assessed as body weight change at 0.08 mmol/kg, po administered for 7 days measured on day 10 relative to control; assay type: organism-based; details: in vivo, 168 h
[2] = system: YOSHIDA; experiment: Antitumor activity against rat Yoshida cells allografted in Donryu rat assessed as tumor inhibition at 0.08 mmol/kg, po qd for 7 days measured on day 10 relative to control; assay type: functional; details: read-out: TGI
[3] = system: Sarcoma-180; experiment: Antitumor activity against mouse Sarcoma 180 cells allografted in ICR mouse assessed as tumor inhibition at 0.08 mmol/kg, po qd for 7 days measured on day 10 relative to control; assay type: functional; details: Sarcoma-180, po, read-out: TGI
[4] = Antitumor activity against rat AH-130 cells allografted in Donryu rat assessed as tumor inhibition at 0.08 mmol/kg, po qd for 7 days measured on day 10 relative to control; assay type: functional; details: read-out: TGI
[5] = Antitumor activity against mouse Ehrlich carcinoma cells allografted in ddY mouse assessed as tumor inhibition at 0.08 mmol/kg, po qd for 7 days measured on day 10 relative to control; assay type: functional; details: read-out: TGI
[6] = system: W256; experiment: Antitumor activity against rat Walker 256 cells allografted in Wistar rat assessed as tumor inhibition at 0.08 mmol/kg, po qd for 7 days measured on day 10 relative to control; assay type: functional; details: read-out: TGI
[7] = system: W256; experiment: Antitumor activity against rat Walker 256 cells allografted in Wistar rat assessed as tumor inhibition at 0.15 mmol/kg, po qd for 7 days measured on day 10 relative to control; assay type: functional; details: read-out: TGI
[8] = system: Sarcoma-180; experiment: Antitumor activity against mouse Sarcoma 180 cells allografted in ICR mouse assessed as tumor inhibition at 0.15 mmol/kg, po qd for 7 days measured on day 10 relative to control; assay type: functional; details: Sarcoma-180, po, read-out: TGI
[9] = Toxicity in po dosed ddY mouse after 3 weeks by up and down method; assay type: organism-based; details: in vivo
[10] = system: Sarcoma-180; experiment: Antitumor activity against mouse Sarcoma 180 cells allografted in ICR mouse assessed as tumor inhibition at 0.45 mmol/kg, po qd for 7 days measured on day 10 relative to control; assay type: functional; details: Sarcoma-180, po, read-out: TGI
[11] = Toxicity in po dosed ddY mouse after 3 days by up and down method; assay type: organism-based; details: in vivo
[12] = system: W256; experiment: Antitumor activity against rat Walker 256 cells allografted in Wistar rat assessed as tumor inhibition at 0.45 mmol/kg, po qd for 7 days measured on day 10 relative to control; assay type: functional; details: read-out: TGI
[13] = Antitumor activity against rat AH-130 cells allografted in Donryu rat assessed as tumor inhibition at 0.15 mmol/kg, po qd for 7 days measured on day 10 relative to control; assay type: functional; details: read-out: TGI
[14] = Antitumor activity against mouse Ehrlich carcinoma cells allografted in ddY mouse assessed as tumor inhibition at 0.15 mmol/kg, po qd for 7 days measured on day 10 relative to control; assay type: functional; details: read-out: TGI
[15] = Antitumor activity against mouse Ehrlich carcinoma cells allografted in ddY mouse assessed as tumor inhibition at 0.45 mmol/kg, po qd for 7 days measured on day 10 relative to control; assay type: functional; details: read-out: TGI
[16] = system: YOSHIDA; experiment: Antitumor activity against rat Yoshida cells allografted in Donryu rat assessed as tumor inhibition at 0.45 mmol/kg, po qd for 7 days measured on day 10 relative to control; assay type: functional; details: read-out: TGI
[17] = system: YOSHIDA; experiment: Antitumor activity against rat Yoshida cells allografted in Donryu rat assessed as tumor inhibition at 0.15 mmol/kg, po qd for 7 days measured on day 10 relative to control; assay type: functional; details: read-out: TGI
[18] = Antitumor activity against rat AH-130 cells allografted in Donryu rat assessed as tumor inhibition at 0.45 mmol/kg, po qd for 7 days measured on day 10 relative to control; assay type: functional; details: read-out: TGI
[19] = system: Rattus norvegicus; experiment: Toxicity in Donryu rat allografted with rat AH-130 cells assessed as body weight change at 0.45 mmol/kg, po administered for 7 days measured on day 10 relative to control; assay type: organism-based; details: in vivo, 168 h
[20] = system: Rattus norvegicus; experiment: Toxicity in Donryu rat allografted with rat AH-130 cells assessed as body weight change at 0.15 mmol/kg, po administered for 7 days measured on day 10 relative to control; assay type: organism-based; details: in vivo, 168 h

Structure (SMILES): O=c1[nH]cc(F)c(=O)[nH]1 [FLUOROURACIL]
- Activity [1]: 42.1 g
- inhibition in vivo at 80 µmol/kg [2]: 41%
- inhibition in vivo at 80 µmol/kg [3]: 48%
- inhibition in vivo at 80 µmol/kg [4]: 33%
- inhibition in vivo at 80 µmol/kg [5]: 42%
- inhibition in vivo at 80 µmol/kg [6]: 24%

Structure (SMILES): O=c1c(F)cn(C2CCCO2)c(=O)n1C1CCCO1 (stereo not drawn)
- inhibition in vivo at 150 µmol/kg [7]: 27%
- inhibition in vivo at 150 µmol/kg [8]: 45%
- LD50 at 504 h [9]: 2660 mg/kg
- inhibition in vivo at 450 µmol/kg [10]: 56%
- LD50 at 72 h [11]: 2900 mg/kg
- inhibition in vivo at 450 µmol/kg [12]: 37%
- inhibition in vivo at 150 µmol/kg [13]: 32%
- inhibition in vivo at 150 µmol/kg [14]: 50%
- inhibition in vivo at 450 µmol/kg [15]: 61%
- inhibition in vivo at 450 µmol/kg [16]: 58%
- inhibition in vivo at 150 µmol/kg [17]: 43%
- inhibition in vivo at 450 µmol/kg [18]: 44%

Structure (SMILES): O=c1[nH]c(=O)n(C2CCCO2)cc1F (stereo not drawn) [TEGAFUR]
- inhibition in vivo at 150 µmol/kg [7]: 27%
- inhibition in vivo at 150 µmol/kg [8]: 38%
- inhibition in vivo at 450 µmol/kg [10]: 37%
- inhibition in vivo at 450 µmol/kg [12]: 31%
- inhibition in vivo at 150 µmol/kg [13]: 22%
- inhibition in vivo at 150 µmol/kg [14]: 38%
- inhibition in vivo at 450 µmol/kg [15]: 54%
- inhibition in vivo at 450 µmol/kg [16]: 52%
- inhibition in vivo at 150 µmol/kg [17]: 32%
- inhibition in vivo at 450 µmol/kg [18]: 35%
- Activity [19]: 40.9 g

Structure (SMILES): O=c1[nH]cc(F)c(=O)n1C1CCCO1 (stereo not drawn)
- inhibition in vivo at 150 µmol/kg [13]: 45%
- Activity [20]: 47.3 g
- inhibition in vivo at 450 µmol/kg [18]: 80%
- Activity [19]: 21.7 g
